A word on the IC50: it is the concentration that inhibits the measured activity by half.

Here are results for 16 compounds from patent US10968169B2, “Urea derivative” (Daiichi Sankyo Company, Limited, priority 2016, dated 2021).

Assay [1] has as its target tryptophanase of Bacteroides thetaiotamicron (Bacteroides thetaiotaomicron, UniProt Q8A7N2). Kind of assay: Tryptophanase enzyme inhibitory activity (LDH-coupled NADH loss). The format is biochemical. The conditions noted are these: L-tryptophan 10 mM, 37° C., absorbance at 340 nm; read-out: Bacteroides Activity of Inhibiting Tryptophanase (IC50). As to the method:
Tryptophanase inhibitory activity was evaluated by a method using lactate dehydrogenase (LDH). The reaction time-dependent reduction in NADH conjugated with the enzymatic reaction, with LDH, of pyruvic acid produced through the enzymatic reaction of L-tryptophan as a substrate with tryptophanase, was measured with a spectrophotometer (Phillips-R S et al., Biochemistry, 23, 6228-6234 (1984)). Enzyme inhibitory activity obtained without adding a test compound (by adding DMSO alone) in the presence of tryptophanase was used as a control. As the enzyme, tryptophanase of Bacteroides thetaiotamicron (Genbank accession number: HC914434.1) was used. A test compound solution was prepared by dissolving each test compound in DMSO in an arbitrary concentration (from 30 mM to 30 nM at 10-fold common ratio). LDH, NADH and L-tryptophan were prepared, using distilled water, respectively to concentrations of 80 units/mL, 10 mM and […]. Bacteroides tryptophanase was prepared to 30 mg/mL. A potassium phosphate buffer was used as the buffer. [table] A reaction solution A was dispensed at 284.8 μL per well into a 96-well plate, and the test compound solution was added at 3.2 μL per well to obtain a final concentration of 1/100 (reaction solution B). The reaction solution B was incubated at 37° C. for 30 minutes, L-tryptophan was added thereto at 32 μL per well to obtain a final concentration of 10 mM (reaction solution C), and the enzyme reaction was performed at 37° C. over 30 minutes with absorbance at 340 nm measured for monitoring the NADH loss. Based on the NADH loss, the tryptophanase inhibitory activity of the compound was evaluated. Besides, the following compounds were similarly tested instead of the test compound.

For assay [2], the system named is Bacteroides. Kind of assay: Indole production suppressing effect in viable bacteria. Format: cell-based. The following applies: indole concentration in culture supernatant, read-out: Eroides Activity of Inhibiting Indole Production(IC50). As for the experimental part: The effect of a tryptophanase inhibitory compound to suppress indole production from a viable bacterium can be evaluated through the following operation. When E. coli (Escherichia Coli) is used as a strain known to produce indole, the strain is cultured in an LB medium at 37° C. for 12 to 18 hours under anaerobic conditions, and then, suspended in an assay medium (5 mM L-Tryptophan/PBS(+)/25 mM HEPES (pH8)) in such a manner as to obtain O.D. of about 0.3. When bacteroides is used, the strain is cultured in a modified GAM medium at 37° C. for 12 to 18 hours under anaerobic conditions, and then suspended in an assay medium (5 mM L-Tryptophan/PBS(+)/25 mM HEPES (pH8)) in such a manner as to obtain O.D. of about 1.1. The thus obtained viable bacterial suspension prepared to have a final concentration of a compound of 1 μM to 10 mM is dispensed at 200 μL per well into a 96-well plate and cultured at 37° C. for 2 to 4 hours under anaerobic conditions, and O.D., an ATP concentration (that can be quantitatively determined by using BacTiter-Glo (Promega Corporation)) and an indole concentration in the culture supernatant (that can be quantitatively determined by utilizing Ehrlich reaction) are measured. The effect of the tryptophanase inhibitory compound to suppress indole production from a viable bacterium can be evaluated depending on the degree of lowering of the indole concentration in the culture supernatant. It can be checked whether or not the effect is derived from a function other than tryptophanase inhibition, such as a bactericidal function or a bacterial growth inhibitory function, depending on lowering of the O.D. or reduction in the ATP concentration or by performing a generally practiced antibacterial activity test (a MIC (minimum growth inhibition concentration) test) using levofloxacin or the like as a positive control. The activities of inhibiting indole production of the compounds of the respective examples shown in Table 11 were measured by the above-described method using Bacteroides to evaluate the effect of inhibiting indole production.

The subject of assay [3] is indoxyl sulfate concentration in the plasma. As to the kind of experiment: Effect of reducing indoxyl sulfate concentration in the plasma of mice. Format: in vivo, male BALB/c mouse. The following applies: oral. As to the method: An effect of a tryptophanase inhibitory compound to reduce an indoxyl sulfate concentration in the plasma of a mouse can be evaluated through the following operation.
After fasting a male BALB/c mouse overnight, a tryptophanase compound dissolved or suspended at a concentration of 0.01 to 10 mg/mL in a 0.5% methylcellulose (MC) solution used as a solvent and a 0.5% MC solution are orally administered by gavage at a dose of 10 mL/kg respectively to a test compound group and to a solvent control group. When 30 minutes have elapsed after the administration of the test compound or the solvent, L-tryptophan, that is, a substrate of tryptophanase, is orally administered by gavage at a dose of 1 to 3 g/kg. The L-tryptophan is suspended in a 0.5% tragacanth solution. For 12 hours after the administration of the L-tryptophan, blood is collected over time from a tail vein by using a hematocrit tube. The thus obtained blood is centrifuged at 11,000 rpm for 5 minutes to collect plasma, and the indoxyl sulfate concentration in the plasma is measured singly by liquid chromatography (fluorescence detection) or its combination with a mass spectrometer used subsequently. The indoxyl sulfate concentration in the plasma of the test compound group against the indoxyl sulfate concentration in the plasma of the solvent control group is calculated as, for example, a ratio of the area under a curve of the indoxyl sulfate concentration, and thus, the efficacy of each compound in a living body can be compared.
The indoxyl sulfate concentrations in plasma obtained by using the compounds of the respective examples shown in Table 12 below were measured by the above-described method to evaluate the effect of reducing indoxyl sulfate concentration.

Like-named read-outs stand apart in the source and are kept apart here. Some results are limits rather than exact numbers.

Chain of tryptophanase of Bacteroides thetaiotamicron (Q8A7N2 entry or part of it, change not shown): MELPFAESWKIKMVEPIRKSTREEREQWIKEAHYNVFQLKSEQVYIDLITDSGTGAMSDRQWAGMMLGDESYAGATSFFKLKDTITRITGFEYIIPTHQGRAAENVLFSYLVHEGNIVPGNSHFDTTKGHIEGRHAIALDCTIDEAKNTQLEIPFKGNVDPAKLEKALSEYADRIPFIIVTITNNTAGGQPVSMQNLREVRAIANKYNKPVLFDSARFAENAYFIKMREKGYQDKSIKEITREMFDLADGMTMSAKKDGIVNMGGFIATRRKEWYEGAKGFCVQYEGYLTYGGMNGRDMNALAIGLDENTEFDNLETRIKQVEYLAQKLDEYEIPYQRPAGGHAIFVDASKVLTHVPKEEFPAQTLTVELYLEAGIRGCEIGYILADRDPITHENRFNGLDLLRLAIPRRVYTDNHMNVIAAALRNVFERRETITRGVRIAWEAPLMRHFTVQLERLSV

With `CCC(NC(=O)Nc1cccc(C#N)c1)(C(=O)O)C1CC1` (single isomer, unassigned) [(+) Isomer Compound of Example 33, (+)-2-{[(3-Cyanophenyl)carbamoyl]amino}-2-cyclopropylbutanoic acid], the values for the IC50 in assay [1] and in assay [2] were 0.6 µM and below 3 µM, respectively. Further, the “Indoxyl Sulfate Reduction Effect in Male BALB/c Mouse Plasma (Indoxyl sulfate reduction effect in plasma 6 hours after administering L-tryptophan: ED75−, mg/kg)” value (from here on “Indoxyl Sulfate Reduction Effect”) in assay [3] was 1 mg/kg.

As for `CC[C@@](NC(=O)Nc1cccc(C#N)c1)(C(=O)O)C1CC1` [(−) Isomer Compound of Example 33, (−)-2-{[(3-cyanophenyl)carbamoyl]amino}-2-cyclopropylbutanoic acid], the IC50 stood at 7.7 µM in assay [1] and 9 µM in assay [2]. Besides, the “Indoxyl Sulfate Reduction Effect” value in assay [3] is listed as above 1 mg/kg.

For `CCC(CC)(NC(=O)Nc1ccccc1)C(=O)O` [Compound A, 2-ethyl-2-[(phenylcarbamoyl)amino]butanoic acid], the 50% inhibitory concentration (IC50) in assay [1] amounted to 20 µM; in assay [2] (Bacteroides) it was 8 µM. For the same compound, the “Indoxyl Sulfate Reduction Effect” value in assay [3] was 1 mg/kg.

In the case of `CCC(CC)(NC(=O)Nc1cccc(Cl)c1)C(=O)O` [Compound B, 2-{[(3-chlorophenyl)carbamoyl]amino}-2-ethylbutanoic acid], the IC50 in assay [1] is 7.4 µM; in assay [2] (Bacteroides), below 3 µM. Moreover, the “Indoxyl Sulfate Reduction Effect” value in assay [3] is listed as above 1 mg/kg.

On to `CCC(CC)(NC(=O)Nc1ccc(Cl)cc1)C(=O)O` [Compound C, 2-{[(4-chlorophenyl)carbamoyl]amino}-2-ethylbutanoic acid], for which the IC50 came to 16 µM in assay [1] and 6 µM in assay [2] (Bacteroides). The “Indoxyl Sulfate Reduction Effect” value in assay [3] is above 1 mg/kg.

On to `CCC(CC)(NC(=O)Nc1ccc(F)cc1)C(=O)O` [Compound D, 2-ethyl-2-{[(4-fluorophenyl)carbamoyl]amino}butanoic acid], for which the IC50 in assay [1] amounted to 38.1 µM; in assay [2] (Bacteroides), 11 µM. For the same compound, in assay [3], the “Indoxyl Sulfate Reduction Effect” value is recorded as 1 mg/kg.

For the compound `CCC(CC)(NC(=O)Nc1cccc(F)c1)C(=O)O` [Compound E, 2-ethyl-2-{[(3-fluorophenyl)carbamoyl]amino}butanoic acid], the values for the half-maximal inhibitory concentration (IC50) in assay [1] and in assay [2] (Bacteroides) were 18.9 µM and 7 µM, respectively. Also, the “Indoxyl Sulfate Reduction Effect” value in assay [3] is given as above 1 mg/kg.

As for `CCC(CC)(NC(=O)Nc1cccc(C#N)c1)C(=O)O` [Compound F, 2-{[(3-cyanophenyl)carbamoyl]amino}-2-ethylbutanoic acid], the half-maximal inhibitory concentration (IC50) came out at 16.5 µM in assay [1] and 12 µM in assay [2] (Bacteroides). Besides, the “Indoxyl Sulfate Reduction Effect” value in assay [3] worked out at 1 mg/kg.

Consider `CCC(CC)(NC(=O)Nc1ccc(CC#N)cc1)C(=O)O` [Compound G, 2-({[4-(cyanomethyl)phenyl]carbamoyl}amino)-2-ethylbutanoic acid], for which the IC50 in assay [1] turned out to be 4.7 µM; in assay [2] (Bacteroides) it was 8 µM. The “Indoxyl Sulfate Reduction Effect” value in assay [3] amounted to 1 mg/kg.

With `CCC(CC)(NC(=O)Nc1ccsc1)C(=O)O` [Compound H, 2-ethyl-2-[(thiophen-3-ylcarbamoyl)amino]butanoic acid], the IC50 in assay [1] stood at 34.1 µM; in assay [2] (Bacteroides), 11 µM. Also, the “Indoxyl Sulfate Reduction Effect” value in assay [3] was 1 mg/kg.

With `CC[C@@](C)(NC(=O)Nc1ccc(OC(F)F)cc1)C(=O)O` [Example 8, (−)-N-{[4-(Difluoromethoxy)phenyl]carbamoyl}-D-isovaline], the IC50 in assay [1] is 12.8 µM; in assay [2] (Bacteroides), 7 µM. In assay [3], the “Indoxyl Sulfate Reduction Effect” value came to 1 mg/kg.

As to `CC[C@@](C)(NC(=O)Nc1ccc(OC(F)F)c(F)c1)C(=O)O` [Example 15, (−)-N-{[4-(Difluoromethoxy)-3-fluorophenyl]carbamoyl}-D-isovaline], the IC50 in assay [1] was determined as 13.5 µM; in assay [2] (Bacteroides) it was 14 µM. In addition, the “Indoxyl Sulfate Reduction Effect” value in assay [3] came to 1 mg/kg.

`CC[C@@](C)(NC(=O)Nc1ccc(Cl)cc1)C(=O)O` [Example 25, (−)-N-[(4-Chlorophenyl)carbamoyl]-D-isovaline]: the IC50 worked out at 26.8 µM in assay [1] and 23 µM in assay [2] (Bacteroides). In addition, in assay [3], the “Indoxyl Sulfate Reduction Effect” value is listed as 1 mg/kg.

Take `CCC(CC)(NC(=O)Nc1csc(Cl)c1)C(=O)O` [Example 27, 2-{[(5-Chlorothiophen-3-yl)carbamoyl]amino}-2-ethylbutanoic acid]: the half-maximal inhibitory concentration (IC50) in assay [1] was 6 µM; in assay [2] (Bacteroides), 5 µM. Further, the “Indoxyl Sulfate Reduction Effect” value in assay [3] worked out at 1 mg/kg.

Consider `CC[C@@](C)(NC(=O)Nc1ccc(Br)cc1)C(=O)O` [Example 30, (−)-N-[(4-Bromophenyl)carbamoyl]-D-isovaline], for which the 50% inhibitory concentration (IC50) in assay [1] turned out to be 22.1 µM; in assay [2] (Bacteroides) it was 14 µM. For the same compound, the “Indoxyl Sulfate Reduction Effect” value in assay [3] was found to be 1 mg/kg.

For `CC[C@@](C)(NC(=O)Nc1ccc(I)cc1)C(=O)O` [Example 31, (−)-N-[(4-Iodophenyl)carbamoyl]-D-isovaline], the IC50 is 7.9 µM in assay [1] and below 3 µM in assay [2] (Bacteroides). Also, the “Indoxyl Sulfate Reduction Effect” value in assay [3] is recorded as 1 mg/kg.
